Results taken from patent US20260028336A1 (Arcus Biosciences, Inc., priority 2022, published 2026).

Columns and labels:
Jurkat cells = assay: IL-2 secretion assay in CD3/CD28-activated Jurkat cells (AlphaLISA); format: cell-based; conditions: Homo sapiens, CD3/CD28 T Cell Activator, 24 h, IL-2 AlphaLISA
Procedure, shortened: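 Jurkat cells (50,000/well) were preincubated 1 h at 37° C with compound in a 16-point 1:2 series spanning 10 μM to 300 pM final. Cells were then activated with CD3/CD28 T cell activator, and secreted IL-2 was read by AlphaLISA. EC50 came from 4-parameter logistic fits.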

Cbl-b = target: T1, Cbl-b (Homo sapiens, UniProt Q13191); assay: Cbl-b probe displacement HTRF binding assay; conditions: 0.4 nM biotinylated Cbl-b, 150 nM BODIPY probe
T1 construct: biotin (biotinylated)
Procedure, shortened: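 Biotinylated Cbl-b was preincubated with compound for 60 min at room temperature in HEPES/NaCl/Triton/TCEP/BSA buffer. BODIPY probe was added for 15 min, followed by streptavidin-terbium, and the HTRF signal was read. Displacement was normalised to DMSO and no-protein controls, and affinity was obtained from a four-parameter dose-response fit.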

T1 sequence (Q13191 whole entry, species assumed): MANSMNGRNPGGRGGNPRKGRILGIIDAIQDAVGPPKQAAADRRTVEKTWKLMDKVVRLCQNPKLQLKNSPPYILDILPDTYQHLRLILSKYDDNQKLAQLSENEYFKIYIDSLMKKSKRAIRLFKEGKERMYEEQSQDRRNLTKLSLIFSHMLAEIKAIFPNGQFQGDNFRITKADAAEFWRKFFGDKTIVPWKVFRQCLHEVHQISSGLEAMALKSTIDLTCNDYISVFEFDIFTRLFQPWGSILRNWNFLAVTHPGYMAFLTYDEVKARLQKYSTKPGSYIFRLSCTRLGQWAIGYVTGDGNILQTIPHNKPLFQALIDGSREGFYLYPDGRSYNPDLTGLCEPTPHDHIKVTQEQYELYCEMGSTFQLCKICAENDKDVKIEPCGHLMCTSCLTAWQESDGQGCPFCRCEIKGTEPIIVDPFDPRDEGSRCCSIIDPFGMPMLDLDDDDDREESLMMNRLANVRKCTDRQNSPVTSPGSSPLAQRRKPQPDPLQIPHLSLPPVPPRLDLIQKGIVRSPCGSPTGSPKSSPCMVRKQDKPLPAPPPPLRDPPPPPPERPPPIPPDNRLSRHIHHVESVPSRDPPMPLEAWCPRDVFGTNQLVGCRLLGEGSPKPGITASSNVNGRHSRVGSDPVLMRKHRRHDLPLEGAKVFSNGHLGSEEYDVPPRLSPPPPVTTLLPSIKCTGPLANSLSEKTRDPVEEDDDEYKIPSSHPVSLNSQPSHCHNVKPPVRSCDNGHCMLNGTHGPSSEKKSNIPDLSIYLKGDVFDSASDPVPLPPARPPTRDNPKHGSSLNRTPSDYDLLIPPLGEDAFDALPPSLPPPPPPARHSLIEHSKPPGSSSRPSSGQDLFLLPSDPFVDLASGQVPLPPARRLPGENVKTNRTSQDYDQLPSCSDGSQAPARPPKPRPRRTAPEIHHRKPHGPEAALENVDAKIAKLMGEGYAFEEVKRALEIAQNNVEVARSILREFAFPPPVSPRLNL

| Structure (SMILES) | EC50 (Jurkat cells) [nM] | IC50 (Cbl-b) [nM] |
| --- | --- | --- |
| Cn1cnnc1[C@]1(c2cccc(-n3cc(C4CC4)c4[nH]c(=O)[nH]c4c3=O)c2)C[C@@H](C)C1 (single isomer, unassigned) [Example 118, 7-cyclopropyl-5-[3-[trans-3-methyl-1-(4-methyl-1,2,4-triazol-3-yl)cyclobutyl]phenyl]-1,3-dihydroimidazo[4,5-c]pyridine-2,4-dione] | > 5000 | 100 to 1000 |
| C[C@H]1CCCN(Cc2cc3c(C4CC4)cn(-c4cccc(C5(c6ncco6)CC(F)(F)C5)c4)c(=O)c3[nH]2)C1 [Example 127, 4-cyclopropyl-6-[3-[3,3-difluoro-1-(1,3-oxazol-2-yl)cyclobutyl]phenyl]-2-[[(3S)-3-methylpiperidin-1-yl]methyl]-1H-pyrrolo[2,3-c]pyridin-7-one] | 100 to 1000 | 100 to 1000 |
| C[C@H]1CCCN(Cc2cc3c(C4CC4)cn(-c4cccc([C@]5(c6nncn6C)C[C@H](OC(F)F)C5)c4)c(=O)c3[nH]2)C1 [Example 95, trans-4-cyclopropyl-6-[3-[3-(difluoromethoxy)-1-(4-methyl-1,2,4-triazol-3-yl)cyclobutyl]phenyl]-2-[[(3S)-3-methylpiperidin-1-yl]methyl]-1H-pyrrolo[2,3-c]pyridin-7-one] | < 100 | < 100 |
| Cn1cnnc1C1(c2cccc(-n3cc(C4CC4)c4cc(CN5CCC(F)(F)C5)[nH]c4c3=O)c2)CC(F)(F)C1 [Example 79, 4-cyclopropyl-6-{3-[3,3-difluoro-1-(4-methyl-4H-1,2,4-triazol-3-yl)cyclobutyl]phenyl}-2-[(3,3-difluoropyrrolidin-1-yl)methyl]-1H,6H,7H-pyrrolo[2,3-c]pyridin-7-one] | 100 to 1000 | 100 to 1000 |
| C[C@H]1CCCN(Cc2cc3c(S(C)(=O)=O)cn(-c4cccc([C@]5(c6nncn6C)C[C@@H](C)C5)c4)c(=O)c3[nH]2)C1 (single isomer, unassigned) [Example 107] | < 100 | < 100 |
| Cn1cnnc1[C@]1(c2cccc(-n3cc(C4CC4)c4nc[nH]c4c3=O)c2)C[C@@H](C)C1 (single isomer, unassigned) [Example 12, 7-cyclopropyl-5-{3-[(1s,3r)-3-methyl-1-(4-methyl-4H-1,2,4-triazol-3-yl)cyclobutyl]phenyl}-3H,4H,5H-imidazo[4,5-c]pyridin-4-one] | 1000 to 5000 | 100 to 1000 |
| CC(O)C1(NCc2cc3c(C4CC4)cn(-c4cccc(C5(c6nncn6C)CC(F)(F)C5)c4)c(=O)c3[nH]2)CC1 (stereo not drawn) [Example 84, 4-cyclopropyl-6-{3-[3,3-difluoro-1-(4-methyl-4H-1,2,4-triazol-3-yl)cyclobutyl]phenyl}-2-({[1-(1-hydroxyethyl)cyclopropyl]amino}methyl)-1H,6H,7H-pyrrolo[2,3-c]pyridin-7-one] | 1000 to 5000 | < 100 |
| Cn1cnnc1C1(c2cccc(-n3cc(C4CC4)c4cc(CN5CCC6(CC6)C5)[nH]c4c3=O)c2)CC(F)(F)C1 [Example 88, 2-({5-azaspiro[2.4]heptan-5-yl}methyl)-4-cyclopropyl-6-{3-[3,3-difluoro-1-(4-methyl-4H-1,2,4-triazol-3-yl)cyclobutyl]phenyl}-1H,6H,7H-pyrrolo[2,3-c]pyridin-7-one] | < 100 | < 100 |
| C[C@H]1CCCN(Cc2nc3c(C(F)(F)F)cn(-c4cccc(C5(c6nncn6C)CC(F)(F)C5)c4)c(=O)c3[nH]2)C1 [Example 113, 5-[3-[3,3-difluoro-1-(4-methyl-1,2,4-triazol-3-yl)cyclobutyl]phenyl]-2-[[(3S)-3-methylpiperidin-1-yl]methyl]-7-(trifluoromethyl)-3H-imidazo[4,5-c]pyridin-4-one] | < 100 | < 100 |
| C[C@H]1CCCN(Cc2cc3c(C4CC4)cn(-c4cccc(C5(c6nncn6C(F)F)CC6(CC6)C5)c4)c(=O)c3[nH]2)C1 [Example 150, 4-cyclopropyl-6-[3-[5-[4-(difluoromethyl)-1,2,4-triazol-3-yl]spiro[2.3]hexan-5-yl]phenyl]-2-[[(3S)-3-methylpiperidin-1-yl]methyl]-1H-pyrrolo[2,3-c]pyridin-7-one] | < 100 | < 100 |
| CC(C)n1cnnc1C1(c2cccc(-n3cc(C4CC4)c4cc(CN5CCC[C@H](C)C5)[nH]c4c3=O)c2)CC2(CC2)C1 [Example 145, 4-Cyclopropyl-2-[[(3S)-3-methylpiperidin-1-yl]methyl]-6-[3-[5-(4-propan-2-yl-1,2,4-triazol-3-yl)spiro[2.3]hexan-5-yl]phenyl]-1H-pyrrolo[2,3-c]pyridin-7-one] | 1000 to 5000 | < 100 |
| Cn1cnnc1C1(c2cccc(-n3cc(C(F)(F)F)c4c(C#N)c[nH]c4c3=O)c2)CC2(CC2)C1 [Example 137, 6-{3-[5-(4-Methyl-4H-1,2,4-triazol-3-yl)spiro[2.3]hexan-5-yl]phenyl}-7-oxo-4-(trifluoromethyl)-1H,6H,7H-pyrrolo[2,3-c]pyridine-3-carbonitrile] | 1000 to 5000 | < 100 |
| Cn1cnnc1C1(c2cccc(-n3cc(C4CC4)c4cc(CN[C@H]5COC[C@@H]5O)[nH]c4c3=O)c2)CC(F)(F)C1 [Example 92] | > 5000 | 100 to 1000 |
| Cn1cnnc1C1(c2cccc(-n3cc(C4CC4)c4cc(CNc5ccc(Cl)cc5F)[nH]c4c3=O)c2)CC(F)(F)C1 [Example 90, 2-{[(4-chloro-2-fluorophenyl)amino]methyl}-4-cyclopropyl-6-{3-[3,3-difluoro-1-(4-methyl-4H-1,2,4-triazol-3-yl)cyclobutyl]phenyl}-1H,6H,7H-pyrrolo[2,3-c]pyridin-7-one] | > 5000 | > 5000 |
| CC1CC(c2cccc(-n3cc(C4CC4)c4cc(CN(C)C5CC5)[nH]c4c3=O)c2)(c2nncn2C)C1 (stereo not drawn) [Example 54, 4-cyclopropyl-2-{I[cyclopropyl(methyl)amino]methyl}-6-{3-[3-methyl-1-(4-methyl-4H-1,2,4-triazol-3-yl)cyclobutyl]phenyl}-1H,6H,7H-pyrrolo[2,3-c]pyridin-7-one] | 100 to 1000 | < 100 |
| Cn1cnnc1C1(c2cccc(-n3cc(C4CC4)c4cc(CN5CCOC6(CC6)C5)[nH]c4c3=O)c2)CC(F)(F)C1 [Example 86, 4-cyclopropyl-6-{3-[3,3-difluoro-1-(4-methyl-4H-1,2,4-triazol-3-yl)cyclobutyl]phenyl}-2-({4-oxa-7-azaspiro[2.5]octan-7-yl}methyl)-1H,6H,7H-pyrrolo[2,3-c]pyridin-7-one] | 1000 to 5000 | 100 to 1000 |
| Cn1cnnc1[C@]1(c2cccc(-n3cc(C(F)(F)F)c4cc[nH]c4c3=O)c2)C[C@H](C)C1 (single isomer, unassigned) [Example 36] | 100 to 1000 | < 100 |
| Cn1cnnc1C1(c2cccc(-n3cc(C4CC4)c4cc(CN5CCC[C@@H]5CO)[nH]c4c3=O)c2)CC(F)(F)C1 [Example 82, 4-cyclopropyl-6-{3-[3,3-difluoro-1-(4-methyl-4H-1,2,4-triazol-3-yl)cyclobutyl]phenyl}-2-{[(2R)-2-(hydroxymethyl)pyrrolidin-1-yl]methyl}-1H,6H,7H-pyrrolo[2,3-c]pyridin-7-one] | 1000 to 5000 | < 100 |
| CC1CC(c2cccc(-n3cnc4c(C(F)(F)F)c(CN5CCC[C@H](C)C5)[nH]c4c3=O)c2)(c2nncn2C)C1 (mixture of isomers) [Example 143, 6—{[(3S)-3-Methylpiperidin-1-yl]methyl}-3-{3-[(1R,3S)-3-methyl-1-(4-methyl-4H-1,2,4-triazol-3-yl)cyclobutyl]phenyl}-7-(trifluoromethyl)-3H,4H,5H-pyrrolo[3,2-d]pyrimidin-4-one] | 100 to 1000 | < 100 |
| C[C@H]1CCCN(Cc2cc3c(C4CC4)cn(-c4cccc(C5(c6nncn6C)CC(F)(F)C5)c4)c(=O)c3[nH]2)C1 [Example 78, 4-cyclopropyl-6-[3-[3,3-difluoro-1-(4-methyl-1,2,4-triazol-3-yl)cyclobutyl]phenyl]-2-[[(3S)-3-methylpiperidin-1-yl]methyl]-1H-pyrrolo[2,3-c]pyridin-7-one] | < 100 | < 100 |
| CC1CC(c2cccc(-n3cc(C4CC4)c4cc(CN5CCC[C@H](F)C5)[nH]c4c3=O)c2)(c2nncn2C)C1 (stereo partly drawn) [Example 64, 4-cyclopropyl-2-{[(3S)-3-fluoropiperidin-1-yl]methyl}-6-{3-[(1r,3s)-3-methyl-1-(4-methyl-4H-1,2,4-triazol-3-yl)cyclobutyl]phenyl}-1H,6H,7H-pyrrolo[2,3-c]pyridin-7-one] | 100 to 1000 | < 100 |
| C[C@H]1CCCN(Cc2nc3c(C4CC4)cn(-c4cccc(C5(c6nncn6C)CC6(CC6)C5)c4)c(=O)c3[nH]2)C1 [Example 111, 7-cyclopropyl-2-[[(3S)-3-methylpiperidin-1-yl]methyl]-5-[3-[5-(4-methyl-1,2,4-triazol-3-yl)spiro[2.3]hexan-5-yl]phenyl]-3H-imidazo[4,5-c]pyridin-4-one] | < 100 | < 100 |
| C[C@H]1CCCN(Cc2cc3c(C4CC4)cn(-c4cccc(C5(Cc6nncn6C)COC5)c4)c(=O)c3[nH]2)C1 [Example 75, 4-cyclopropyl-2-[[(3S)-3-methylpiperidin-1-yl]methyl]-6-[3-[3-[(4-methyl-1,2,4-triazol-3-yl)methyl]oxetan-3-yl]phenyl]-1H-pyrrolo[2,3-c]pyridin-7-one] | < 100 | < 100 |
| CC1CC(c2cccc(-n3cc(C4CC4)c4cc(CNC5(C(F)(F)F)CC5)[nH]c4c3=O)c2)(c2nncn2C)C1 (stereo not drawn) [Example 41, 4-cyclopropyl-6-{3-[(1r,3s)-3-methyl-1-(4-methyl-4H-1,2,4-triazol-3-yl)cyclobutyl]phenyl}-2-({[1-(trifluoromethyl)cyclopropyl]amino}methyl)-1H,6H,7H-pyrrolo[2,3-c]pyridin-7-one] | 1000 to 5000 | 100 to 1000 |
